Data reported in PubChem BioAssay AID342 (DTP/NCI, 2004).
Values joined by “and” are separate entries in the source; they are usually repeats but may differ in a detail not shown here. Identical values can stand only once.

Test system: Swiss mice, Sarcoma 180 sc, mean tumor weight T/C
Experiment: NCI In Vivo Anticancer Drug Screen. Data for tumor model Sarcoma 180 (subcutaneous) in Swiss mice
Conditions: endpoint: mean tumor weight, higher = larger tumour
Procedure: The antitumor activity of compounds was measured in mice bearing transplantable tumors. Survival or tumor size were measured and the results are expressed as the measurement made in the treated group (T) divided by the measurement made in the vehicle treated control group (C). The tumor model used in this assay is Sarcoma 180 (subcutaneous) in Swiss mice

O=C1c2ccccc2-c2c3c(cc4ccnc1c24)OCO3
T/C (dose: 45.0 mg/kg/injection, schedule: Q01DX007 (ip), vehicle: saline): 81 % of control
T/C (dose: 65.0 mg/kg/injection, schedule: Q01DX007 (ip), vehicle: saline): 67 % of control
T/C (dose: 100.0 mg/kg/injection, schedule: Q01DX007 (ip), vehicle: saline): 75 % of control
T/C (dose: 150.0 mg/kg/injection, schedule: Q01DX007 (ip), vehicle: saline): 47 % of control

[Cu+2].[O-]c1ccc(Br)c2cccnc12.[O-]c1ccc(Br)c2cccnc12
T/C (dose: 4.2 mg/kg/injection, schedule: Q01DX007 (ip), vehicle: carboxymethylcellulose (CMC)): 71 % of control
T/C (dose: 6.2 mg/kg/injection, schedule: Q01DX007 (ip), vehicle: carboxymethylcellulose (CMC)): 66 % of control
T/C (dose: 14.0 mg/kg/injection, schedule: Q01DX007 (ip), vehicle: other): 63 % of control
T/C (dose: 21.0 mg/kg/injection, schedule: Q01DX007 (ip), vehicle: other): 39 % of control
T/C (dose: 32.0 mg/kg/injection, schedule: Q01DX007 (ip), vehicle: other): 26 % of control

CCCCCCCCCCCCO[P+](=O)OCCCCCCCCCCCC
T/C (dose: 100.0 mg/kg/injection, schedule: Q01DX007 (ip), vehicle: carboxymethylcellulose (CMC)): 111 % of control
T/C (dose: 111.0 mg/kg/injection, schedule: Q#A X014 (ip), vehicle: carboxymethylcellulose (CMC)): 45 % of control
T/C (dose: 222.0 mg/kg/injection, schedule: Q01DX007 (ip), vehicle: carboxymethylcellulose (CMC)): 47 % of control and 71 % of control
T/C (dose: 250.0 mg/kg/injection, schedule: Q#A X014 (ip), vehicle: carboxymethylcellulose (CMC)): 25 % of control
T/C (dose: 300.0 mg/kg/injection, schedule: Q01DX007 (ip), vehicle: carboxymethylcellulose (CMC)): 32 % of control
T/C (dose: 333.0 mg/kg/injection, schedule: Q01DX007 (ip), vehicle: carboxymethylcellulose (CMC)): 63 % of control and 65 % of control
T/C (dose: 375.0 mg/kg/injection, schedule: Q#A X014 (ip), vehicle: carboxymethylcellulose (CMC)): 20 % of control
T/C (dose: 500.0 mg/kg/injection, schedule: Q01DX007 (ip), vehicle: carboxymethylcellulose (CMC)): 42 % of control and 50 % of control
T/C (dose: 750.0 mg/kg/injection, schedule: Q01DX007 (ip), vehicle: carboxymethylcellulose (CMC)): 12 % of control

CCOC(=O)C(Cc1ccccc1)c1ccc(Cl)cc1 (stereo not drawn)
T/C (dose: 62.5 mg/kg/injection, schedule: Q01DX007 (ip), vehicle: methylcellulose (MC)): 67 % of control
T/C (dose: 125.0 mg/kg/injection, schedule: Q01DX007 (ip), vehicle: methylcellulose (MC)): 75 % of control
T/C (dose: 250.0 mg/kg/injection, schedule: Q01DX007 (ip), vehicle: methylcellulose (MC)): 118 % of control

O=C(N/N=C/C=C/c1ccccc1)[C@H](O)[C@@H](O)C(=O)N/N=C/C=C/c1ccccc1
T/C (dose: 111.0 mg/kg/injection, schedule: Q#A X014 (ip), vehicle: saline): 57 % of control
T/C (dose: 166.5 mg/kg/injection, schedule: Q#A X014 (ip), vehicle: saline): 40 % of control
T/C (dose: 250.0 mg/kg/injection, schedule: Q#A X014 (ip), vehicle: saline): 57 % of control

CO[C@H](C(=O)[C@@H](O)[C@@H](C)O)[C@@H]1Cc2cc3cc(OC4CC(OC5CC(O)C(O)C(C)O5)C(O)C(C)O4)c(C)c(O)c3c(O)c2C(=O)[C@H]1OC1CC(OC2CC(OC3CC(C)(O)C(O)C(C)O3)C(O)C(C)O2)C(O)C(C)O1 (stereo partly drawn)
T/C (dose: 0.25 mg/kg/injection, schedule: Q01DX007 (ip), vehicle: water): 72 % of control
T/C (dose: 0.3 mg/kg/injection, schedule: Q01DX007 (ip), vehicle: water): 50 % of control
T/C (dose: 0.3 mg/kg/injection, schedule: Q02DX004 (ip), vehicle: water): 74 % of control
T/C (dose: 0.45 mg/kg/injection, schedule: Q01DX007 (ip), vehicle: water): 45 % of control
T/C (dose: 0.45 mg/kg/injection, schedule: Q02DX004 (ip), vehicle: water): 80 % of control
T/C (dose: 0.5 mg/kg/injection, schedule: Q01DX007 (ip), vehicle: water): 57 % of control
T/C (dose: 0.6 mg/kg/injection, schedule: Q02DX004 (ip), vehicle: water): 47 % of control
T/C (dose: 1.0 mg/kg/injection, schedule: Q01DX007 (ip), vehicle: water): 102 % of control
T/C (dose: 1.0 mg/kg/injection, schedule: Q02DX004 (ip), vehicle: water): 80 % of control
T/C (dose: 2.0 mg/kg/injection, schedule: Q01DX007 (ip), vehicle: water): 72 % of control
T/C (dose: 2.0 mg/kg/injection, schedule: Q02DX004 (ip), vehicle: water): 67 % of control
T/C (dose: 3.0 mg/kg/injection, schedule: Q02DX004 (ip), vehicle: water): 50 % of control
T/C (dose: 4.0 mg/kg/injection, schedule: Q02DX004 (ip), vehicle: water): 60 % of control
T/C (dose: 5.0 mg/kg/injection, schedule: Q02DX004 (ip), vehicle: water): 50 % of control
